In data set [1] the test system is IG20-SVs. Nature of the data set: Screening of shRNAs: knock-down of exogenous IG20-SV-YFP expression in 293T cells (flow cytometry). The format is cell-based. Here is the method: In order to determine which of the IG20-SVs contribute to apoptosis and cell proliferation, siRNA (small inhibitory RNA) approach was used to selectively knockdown IG20-SVs (Table 1). The siRNAs were cloned into the pSUPER vector to allow for expression of shRNAs (small hairpin RNAs). 293T cells were co-transfected with YFPIG20pa, YFP-MADD or YFP-DENN-SV along with different shRNA-expressing pSUPER vectors at ratios of 1:1, 1:3 and 1:7. Knock-down of protein expression was assessed by a reduction in YFP expression using flow cytometry. Several shRNAs were screened. Knock-down of expression of exogenous IG20-SVs were analyzed. 293T cells were plated onto 12-well plates and cotransfected with the indicated IG20-SV-YFP and pSUPER-shRNA constructs. YFP expression was represented as Mean Fluorescence Intensity. Specificity of Mid-shRNA was analyzed. The inability of Mid-shRNA to suppress the expression of mutant-IG20pa, -MADD, and -DENN-SV constructs was analyzed. […] Vector alone or a control shRNA had little or no effect on the expression of IG20-SVs. The sequences provided in Table 1 are exemplary and other sequences that specifically target MADD or any other isoform can be designed by those of skill in the art based on the information given in Table 1 and the disclosure in general.
To further confirm specificity of Mid-shRNA, silent mutations were created in cDNAs encoding IG20-SVs at sites corresponding to the 5th, 7th, 11th and 14th nucleotides of the Mid-shRNA. These mutations neither affected the amino acid sequence nor protein expression. Mutant-IG20-SV constructs were cotransfected with the pSUPER-shRNA and assessed for their expression. […] FIG. 18 is a schematic illustration of the targets of some of the shRNAs used to knock-down specific IG20 splice variants (isoforms). FIG. 11 provides schematic illustration of screening for shRNAs (A) and lentivirus production that contain the shRNA expressing vectors (B). Fluorescence values were measured from cells transfected with the respective shRNAs (FIG. 12).
Screening of shRNAs. IG20-YFP constructs were co-transfected with different pSUPER-shRNA constructs in different ratios (1:1, 1:3, 1:7) into 293T cells using Calcium phosphate. 24 hours post-transduction, cells were trypsinized, collected and washed twice in cold PBS, and analyzed for YFP expression by flow cytometry using a FACS Calibur (Becton Dickinson, N.J.).
A general note: In flow cytometry, cells or beads pass a laser one at a time.

Data set [2] deals with HeLa cells. Nature of the data set: Cell growth: trypan blue-negative viable cell count, HeLa. The conditions noted are these: relative to controls. The format is cell-based. Here is the method: Cell Growth. 24 hours post-transduction, HeLa cells were plated as described in materials and methods. Cells were then harvested and viable cells (trypan blue negative cells) were counted on indicated days. Data represent Mean+SD of triplicates. Cell proliferation. 24 hours post-transduction HeLa cells were stained with CF SE-red (SNARF-1 carboxylic acid, acetate, succinimidyl ester), harvested on indicated days and evaluated for CFSE-dilution by FACS. The numbers on the histograms indicate geometric peak mean intensities of CFSE staining in the transduced cells. Cell survival. Crystal violet staining of cells surviving upon IG20 down-modulation after transduction shown C-G.
In order to assess the effects on cell growth and proliferation, various shRNA-expressing viable cells were counted. […] The cells were stained with CFSE and cell division was monitored. […] Further confirmation was obtained by plating equal numbers of HeLa cells expressing various shRNAs and determining the number and size of colonies after 12 days.
Cell Proliferation. 24 hours post-transduction, 5×10^5 HeLa or 8×10^5 PA-1 cells were plated into six-well plates. Every other day, cells were collected, washed and stained with trypan blue, and trypan blue-negative viable cells were counted.

As for “13L-shRNA: shRNA targeting exon 13L (IG20, MADD), 5′ CGGCGAATCTATGACAATC-3′ (SEQ ID NO: 4)”, the “Effect on IG20-SVs devoid of the targeted exon (specificity)” value in data set [1] is on record as “little or no effect on IG20-SVs devoid of the targeted exon”. In addition, the “Knock-down of expression of exogenous IG20-SVs (YFP expression, Mean Fluorescence Intensity)” value in data set [1] (293T cells cotransfected with IG20-SV-YFP and pSUPER-shRNA, ratios 1:1, 1:3, 1:7) was “down-modulated IG20pa/MADD, leaving the expression of IG20-SV2 and DENN-SV unaltered”. Further, the “Numbers of viable cells” value in data set [2] is on record as “significant decrease in the numbers of viable cells”.
